Series [1] in a line: Cytotoxicity against human hepatoma cells assessed as decrease in RNA level after 3 days by RT-PCR analysis. In kind it is cell-based. Particulars: human hepatoma cells.
The nature of series [2]: AUC (0 to 6 hrs) in rat at 10 mg/kg, po. Type of series: ADME, organism-based. The settings on record: plasma. Further details: time < 6 hr, dose 10 mg/kg, route oral.
Series [3] concerns Hepatitis C virus. Kind of series: Antiviral activity against Hepatitis C virus isolate con1 1b infected in human hepatoma cells replicon cells after 3 days by RT-PCR analysis. In kind it is functional, organism-based, Hepacivirus hominis, genotype 1b Con1. The settings on record: Hepatitis C virus, genotype 1b Con1, 72 h. For orientation: Replicon systems follow genome replication, usually without infectious particles.

Series [4] can be described thus: Cytotoxicity against human hepatoma cells after 3 days by MTS assay. In kind it is cell-based. The settings on record: human hepatoma cells. (In general: Formazan colour is commonly taken as a measure of viable cells.)
The subject of series [5] is Liver. Kind of series: Drug uptake in rat liver per mg tissue at 10 mg/kg, po after 6 hrs. Type of series: ADME, organism-based. The arrangement: dose 10 mg/kg, route oral. Particulars: in vivo.
The nature of series [6]: AUC (0 to 24 hrs) in rat at 10 mg/kg, po. In kind it is ADME, organism-based. Further details: time < 24 hr, dose 10 mg/kg, route oral. Particulars: plasma.

By CC50 is commonly meant the concentration giving 50% cytotoxicity. The term AUC(0-t) denotes exposure summed from dosing to a finite time, without extrapolation to infinity. Low values mean less exposure, high ones more exposure. In general, EC50 refers to the concentration that produces a half-maximal response. High values mean a less potent agent, low ones a more potent agent.

Regarding `Cc1nc(N[C@@H](C)C(F)(F)F)nc(N[C@@H]2C[C@H](CO)[C@@H](O)[C@H]2O)c1-c1nc2ccccc2s1`, the CC50 at 72 h in series [1] and in series [4] was more than 25 µM each time. The same compound showed an AUC(0-t) at 6 h in series [2] of 13000 nM·h. Also, the EC50 in series [3] was 0.14 µM. The compound also returned a Drug uptake in series [5] of 6570 ng/g.
`Cc1nc(NCc2nccs2)nc(N[C@@H]2C[C@H](CO)[C@@H](O)[C@H]2O)c1-c1nc2ccccc2s1`: the figures for the CC50 at 72 h in series [1] and in series [4] were 23 µM and 21 µM, respectively. The same compound gave an AUC(0-t) at 6 h in series [2] of 500 nM·h. Besides, a half-maximal response in series [3] (EC50) required 0.03 µM. Moreover, the Drug uptake in series [5] came to 150 ng/g.
With `Cc1nc(NCCC(F)(F)F)nc(N[C@@H]2C[C@H](CO)[C@@H](O)[C@H]2O)c1-c1nc2ccccc2s1`, the CC50 at 72 h in series [1] and in series [4] was 9 µM throughout. Further, the AUC(0-t) at 6 h in series [2] is 5300 nM·h. This compound also had a half-maximal effective concentration (EC50) in series [3] of 0.03 µM. This compound also yielded a Drug uptake in series [5] of 1080 ng/g.
Consider `CCOC(=O)NCCNc1nc(C)c(-c2nc3ccccc3s2)c(N[C@@H]2C[C@H](CO)[C@@H](O)[C@H]2O)n1`, for which the CC50 at 72 h in series [1] turned out to be 12 µM; in series [4] it was 19 µM. Besides, the AUC(0-t) at 6 h in series [2] amounted to 300 nM·h. In series [3], this compound yielded an EC50 of 0.04 µM. Further, the Drug uptake in series [5] was 63 ng/g.
For `COCCNc1nc(C)c(-c2nc3ccccc3s2)c(N[C@@H]2C[C@H](CO)[C@@H](O)[C@H]2O)n1`, the CC50 at 72 h in series [1] was 21 µM; in series [4] it was 15 µM. This compound gave an AUC(0-t) at 6 h in series [2] of 5900 nM·h. The compound also showed an EC50 in series [3] of 0.035 µM. Besides, the Drug uptake in series [5] stood at 875 ng/g.
As for `Cc1nc(NCc2ccccn2)nc(N[C@@H]2C[C@H](CO)[C@@H](O)[C@H]2O)c1-c1nc2ccccc2s1`, the CC50 at 72 h in series [1] amounted to 13 µM; in series [4], 18 µM. In addition, in series [2], the AUC(0-t) at 6 h was 3400 nM·h. In series [3], this compound gave an EC50 of 0.03 µM. Further, the Drug uptake in series [5] turned out to be 125 ng/g.
In the case of `Cc1nc(NCc2ccsc2)nc(N[C@@H]2C[C@H](CO)[C@@H](O)[C@H]2O)c1-c1nc2ccccc2s1`, the CC50 at 72 h in series [1] worked out at 6 µM; in series [4], 4 µM. In series [2], this compound registered an area under the curve AUC(0-t) at 6 h of 200 nM·h. In series [3], this compound gave an EC50 of 0.015 µM. In addition, the Drug uptake in series [5] was 75 ng/g.
Consider `Cc1nc(NCC2CC2)nc(N[C@@H]2C[C@H](CO)[C@@H](O)[C@H]2O)c1-c1nc2ccccc2s1`, for which the CC50 at 72 h in series [1] and in series [4] was 8 µM throughout. Moreover, the AUC(0-t) at 6 h in series [2] is 3200 nM·h. In series [3], the EC50 came to 0.05 µM. The same compound came in with a Drug uptake in series [5] of 405 ng/g.
Turning to `Cc1nc(NCc2ccncc2)nc(N[C@@H]2C[C@H](CO)[C@@H](O)[C@H]2O)c1-c1nc2ccccc2s1`, the CC50 at 72 h in series [1] came out at 7 µM; in series [4], 9 µM. In addition, the AUC(0-t) at 6 h in series [2] was 100 nM·h. The same compound registered an EC50 in series [3] of 0.03 µM. For the same compound, the Drug uptake in series [5] was 100 ng/g.
Regarding `Cc1nc(NC(C)(C)C)nc(N[C@@H]2C[C@H](CO)[C@@H](O)[C@H]2O)c1-c1nc2ccccc2s1`, the CC50 at 72 h in series [1] turned out to be 12 µM; in series [4] it was 13 µM. This compound yielded an AUC(0-t) at 6 h in series [2] of 5000 nM·h. In addition, in series [3], the 50% effective concentration (EC50) was determined as 0.09 µM. In series [5], the Drug uptake was 1240 ng/g.
As to `Cc1nc(Nc2ccccc2)nc(N[C@@H]2C[C@H](CO)[C@@H](O)[C@H]2O)c1-c1nc2ccccc2s1`, the CC50 at 72 h in series [1] and in series [4] was more than 25 µM in each case. Besides, the AUC(0-t) at 6 h in series [2] is 1600 nM·h. This compound gave an EC50 in series [3] of 0.28 µM. The same compound came in with a Drug uptake in series [5] of 970 ng/g.
For the compound `Cc1nc(NCCOC(C)C)nc(N[C@@H]2C[C@H](CO)[C@@H](O)[C@H]2O)c1-c1nc2ccccc2s1`, the CC50 at 72 h in series [1] was 8 µM; in series [4] it was 7 µM. In series [2], the AUC(0-t) at 6 h is 900 nM·h. Further, in series [3], a half-maximal effect (EC50) was put at 0.02 µM. Also, the Drug uptake in series [5] amounted to 130 ng/g.
On to `Cc1nc(NCc2cccnc2)nc(N[C@@H]2C[C@H](CO)[C@@H](O)[C@H]2O)c1-c1nc2ccccc2s1`, for which the CC50 at 72 h came to 5 µM in series [1] and 11 µM in series [4]. The AUC(0-t) at 6 h in series [2] worked out at 20 nM·h. Further, a half-maximal response in series [3] (EC50) required 0.015 µM. In series [5], the Drug uptake stood at 10 ng/g.
On to `Cc1nc(NCc2ccccc2)nc(N[C@@H]2C[C@H](CO)[C@@H](O)[C@H]2O)c1-c1nc2ccccc2s1`, for which the CC50 at 72 h in series [1] amounted to 9 µM; in series [4], 7 µM. The compound also returned an area under the curve AUC(0-t) at 6 h in series [2] of 2200 nM·h. A half-maximal effect in series [3] (EC50) was put at 0.03 µM. The compound also yielded a Drug uptake in series [5] of 430 ng/g.
As to `Cc1nc(NCC2CCC2)nc(N[C@@H]2C[C@H](CO)[C@@H](O)[C@H]2O)c1-c1nc2ccccc2s1`, the CC50 at 72 h in series [1] and in series [4] was more than 25 µM each time. Moreover, the AUC(0-t) at 6 h in series [2] came to 500 nM·h. For the same compound, the EC50 in series [3] was 0.25 µM. Further, the Drug uptake in series [5] came out at 150 ng/g.
As for `Nc1ncc(-c2nc3ccccc3s2)c(N[C@@H]2C[C@H](CO)[C@@H](O)[C@H]2O)n1`, the CC50 at 72 h in series [1] and in series [4] was more than 25 µM each time. Also, the AUC(0-t) at 6 h in series [2] was 400 nM·h. Also, the EC50 in series [3] came out at 0.2 µM. Also, the Drug uptake in series [5] was 250 ng/g.
For the compound `Cc1nc(NCC(C)C)nc(N[C@@H]2C[C@H](CO)[C@@H](O)[C@H]2O)c1-c1nc2ccccc2s1`, the CC50 at 72 h in series [1] and in series [4] was 10 µM throughout. The AUC(0-t) at 6 h in series [2] came to 2300 nM·h. The compound also showed an EC50 in series [3] of 0.06 µM. In series [5], this compound returned a Drug uptake of 510 ng/g.
Regarding `Cc1nc(NCCN2CCOCC2)nc(N[C@@H]2C[C@H](CO)[C@@H](O)[C@H]2O)c1-c1nc2ccccc2s1`, the CC50 at 72 h in series [1] and in series [4] was 25 µM throughout. Besides, the AUC(0-t) at 6 h in series [2] came to 200 nM·h. Also, the EC50 in series [3] is 0.04 µM. In series [5], this compound displayed a Drug uptake of 370 ng/g.
Consider `Cc1nc(NC(C)C)nc(N[C@@H]2C[C@H](CO)[C@@H](O)[C@H]2O)c1-c1nc2ccccc2s1`, for which the CC50 at 72 h worked out at 13 µM in series [1] and 14 µM in series [4]. In series [2], this compound had an AUC(0-t) at 6 h of 19600 nM·h. Besides, the EC50 in series [3] was found to be 0.16 µM. In series [5], this compound yielded a Drug uptake of 3320 ng/g.
Take `Cc1nc(N(C)C)nc(N[C@@H]2C[C@H](CO)[C@@H](O)[C@H]2O)c1-c1nc2ccccc2s1`: the CC50 at 72 h in series [1] is 18 µM; in series [4], 16 µM. Moreover, the AUC(0-t) at 24 h in series [6] was 11000 nM·h. The same compound displayed an EC50 in series [3] of 0.14 µM. For the same compound, the Drug uptake in series [5] was 1030 ng/g.
As to `Cc1nc(NCc2cccs2)nc(N[C@@H]2C[C@H](CO)[C@@H](O)[C@H]2O)c1-c1nc2ccccc2s1`, the CC50 at 72 h was determined as 6 µM in series [1] and 5 µM in series [4]. The exposure AUC(0-t) at 6 h in series [2] worked out at 500 nM·h. The compound also showed an EC50 in series [3] of 0.006 µM. The Drug uptake in series [5] was 180 ng/g.
As to `OC[C@H]1C[C@@H](Nc2nc(NCC(F)(F)F)nc(C3CC3)c2-c2nc3ccccc3s2)[C@H](O)[C@@H]1O`, the CC50 at 72 h in series [1] and in series [4] was more than 25 µM each time. In series [2], the AUC(0-t) at 6 h stood at 12800 nM·h. Also, in series [3], it took 0.7 µM to reach a half-maximal effect (EC50). Also, the Drug uptake in series [5] was determined as 12800 ng/g.
Turning to `Cc1nc(NCCCC(F)(F)F)nc(N[C@@H]2C[C@H](CO)[C@@H](O)[C@H]2O)c1-c1nc2ccccc2s1`, the CC50 at 72 h stood at 3 µM in series [1] and 4 µM in series [4]. In series [2], the AUC(0-t) at 6 h stood at 2100 nM·h. Moreover, the EC50 in series [3] is 0.03 µM. In addition, in series [5], the Drug uptake worked out at 2230 ng/g.
